Entries after “also recorded” stand apart in the source; their conditions may differ.
What was measured:
[1] = system: Molm13 PPM1D-mutant and Molm13 control single cell clones; assay: Immunoblot of whole cell lysates for p53 Ser15 and Chk1 Ser345 phosphorylation; format: cell-based, human; conditions: Molm13 PPM1D-mutant cells, 1 hour pretreated with GSK2830371, exposed to 400 nM cytarabine
[2] = system: Molm13 PPM1D-mutant and control single cell clones; assay: 72-hour cell viability analysis; format: cell-based, human
Description: FIG. 2B provides immunoblots of whole cell lysates from Molm13 control cells (control), PPM1D-mutant pooled clones and PPM1D frame-shift (fs) mutant single cell clones probed with anti-PPM1D and anti-Actin. […] FIG. 2D is a plot depicting viability assays in Molm13 PPM1D-mutant or control single cells clones that were treated with increasing concentrations of cyclophosphamide for 72 hours. FIG. 2E is a plot depicting viability assays in Molm13 PPM1D-mutant or control single cells clones that were treated with increasing concentrations of cisplatin for 72 hours. […] FIG. 2G is a plot depicting flow cytometric readout of competition experiment with 5% pooled Molm13 PPM1D-mutant cells and 95% pooled Molm13 control cells exposed to 350 nM Cyclophosphamide or vehicle for 24 days. FIG. 2H is a plot depicting flow cytometric readout of competition experiment with 5% pooled Molm13 PPM1D-mutant cells and 95% pooled Molm13 control cells exposed to 1 μM Cisplatin or vehicle for 24 days. […] PPM1D and control sgRNAs were identified through their fluorophores.
The line represents the locally weighted scatterplot smoothing (LOESS) of 0.1. […] FIG. 8B is a vector map of the degradation reporter vector, with different PPM1D cDNA constructs inserted. FIG. 8C is a graph showing EGFP/mCherry ratio for Molm13 cells with overexpression of wild type PPM1D, truncated PPM1D or the C-terminal end of PPM1D. FIG. 8D is a graph showing EGFP/mCherry ratio for Molm13 p53^−/− cells with overexpression of wild type PPM1D, truncated PPM1D or the C-terminal end of PPM1D. FIG. 8E is a graph showing EGFP/mCherry ratio in Molm13 cells before and after exposure to MG132 (10 μM, 6 hours), normalized to pre-treatment values. FIG. 8F is a plot showing cell viability analysis in Molm13 control cells (control), Molm13 PPM1D truncating mutant cells (PPM1D mutant) and Molm13 cells with overexpression of wild-type PPM1D (WT overexpression). […] For all experiments the following apply: *=p<0.05, **=p<0.01, ***=p<0.001,****=p<0.0001
(§1) 72 hour cell viability analysis in Molm13 PPM1D-mutant and control single cell clones after exposure to increasing doses of GSK2830371. FIG. 10F is a graph showing percent Annexin V positive cells in cells treated with PPM1D inhibitor or vehicle. Annexin V staining and flow cytometric analysis of Molm13 PPM1D-mutant and control single cell clones exposed to 3 μM of GSK2830371. *=p<0.05, **=p<0.01, ***=p<0.001
To study the role of PPM1D mutations in chemotherapy resistance, mutations in PPM1D were induced using the CRISPR-Cas9 system. […] Using sequence verified PPM1D mutant (fs) and empty vector control Molm13 cells, the effects of mutant and wild type PPM1D in the response to DNA damaging chemotherapy were analyzed. […] (FIG. 1C).
(§2) To study the sensitivity of PPM1D truncating mutations to chemotherapy exposure, frame-shift mutations were introduced in the PPM1D gene in Molm13 AML cells, which are TP53 wild-type, using CRISPR-Cas9.

[3] = system: Molm13 PPM1D-mutant and control single cell clones; assay: Annexin V staining and flow cytometric analysis; format: cell-based, human; conditions: 3 μM of GSK2830371
Description: FIG. 9E is a chart depicting the consensus sequence of PPM1D based on substrate analysis of 43 substrate candidates of PPM1D. FIG. 9F depicts 43 potential PPM1D substrate sites on pSer/Thr residues on 25 proteins. […] Only localized sites were considered. Figure discloses SEQ ID NOS 4-20 and 20-31, respectively, in order of appearance. FIG. 9G depicts a schema illustrating the components of the DNA-damage response pathway that are targeted by PPM1D in leukemia cells, based on the results from the phosphoproteomics analysis. Phospho-targets of PPM1D identified by mass spectrometry (FDR<0.1) are shown in bold. Predicted PPM1D target sites that were based on the identified consensus sequence with a glutamine at +1 and >2 acidic residues (p=3.595e-13, Fisher's exact test) are shown in italics.
as §1

PPM1D phosphatase = molecular target: T1, PPM1D phosphatase (Homo sapiens, UniProt O15297); conditions: Gilmartin et al. 2014; cited from earlier work
T1 sequence (O15297 1-605): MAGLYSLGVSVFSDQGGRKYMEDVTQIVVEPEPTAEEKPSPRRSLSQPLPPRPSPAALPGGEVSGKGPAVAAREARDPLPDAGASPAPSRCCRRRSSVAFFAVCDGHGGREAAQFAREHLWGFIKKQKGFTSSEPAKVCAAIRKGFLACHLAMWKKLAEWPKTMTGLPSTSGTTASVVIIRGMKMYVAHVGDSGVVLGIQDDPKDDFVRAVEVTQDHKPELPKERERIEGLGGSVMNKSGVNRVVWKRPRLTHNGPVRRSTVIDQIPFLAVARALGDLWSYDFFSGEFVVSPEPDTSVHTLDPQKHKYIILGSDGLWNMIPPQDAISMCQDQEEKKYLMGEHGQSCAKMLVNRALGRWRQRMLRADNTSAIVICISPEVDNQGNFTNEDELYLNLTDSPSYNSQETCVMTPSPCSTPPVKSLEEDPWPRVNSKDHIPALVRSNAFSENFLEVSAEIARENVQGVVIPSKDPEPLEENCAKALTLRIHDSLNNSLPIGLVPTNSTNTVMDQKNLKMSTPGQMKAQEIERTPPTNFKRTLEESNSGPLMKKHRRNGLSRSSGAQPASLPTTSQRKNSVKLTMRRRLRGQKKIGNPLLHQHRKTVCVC

[4] = system: Molm13 PPM1D-mutant cells; assay: Quantitative phosphoproteomic analysis (KEGG P53 pathway phosphosites); format: cell-based, human; conditions: 400 nM AraC + 1 μM GSK2830371, 4 hours
Description: as §1
To explore the spectrum of PPM1D targets in hematopoietic cells, a quantitative phosphoproteomic analysis was performed in PPM1D wild-type and mutant cells at baseline and in response to chemotherapy. […] In addition, CDKN1A (p21) was identified as a new DNA damage response target of PPM1D. Based on the peptides with altered phosphorylation in PPM1D-mutant cells, a consensus sequence was identified for the serine-threonine phosphatase activity of PPM1D (FIGS. 9E and 9F). Because many phosphorylation sites are not located on peptides that are detected by mass spectrometry, the consensus sequence was used to predict additional PPM1D targets. Known PPM1D targets, including TP53, CHEK1, CHEK2, ATM, ATR and MDM2, bear the consensus target sequence. In addition, new phosphorylation sites were identified in components of the DNA damage response pathway that are predicted targets of PPM1D based on the consensus sequence. […]

[5] = system: Molm13 PPM1D-mutant pooled cells and control pooled cells; assay: In vitro competition experiment, PPM1D-mutant cells mixed with control cells; format: cell-based, human; conditions: 1:9 ratio, 100 nM cytarabine plus 100 nM GSK2830371
Description: FIG. 2B provides immunoblots of whole cell lysates from Molm13 control cells (control), PPM1D-mutant pooled clones and PPM1D frame-shift (fs) mutant single cell clones probed with anti-PPM1D and anti-Actin. […] FIG. 2D is a plot depicting viability assays in Molm13 PPM1D-mutant or control single cells clones that were treated with increasing concentrations of cyclophosphamide for 72 hours. FIG. 2E is a plot depicting viability assays in Molm13 PPM1D-mutant or control single cells clones that were treated with increasing concentrations of cisplatin for 72 hours. […] FIG. […] FIG. […] PPM1D and control sgRNAs were identified through their fluorophores.
as §1, §2

Cc1ncc(Cl)cc1NCc1ccc(C(=O)N[C@@H](CC2CCCC2)C(=O)NC2CC2)s1 [GSK2830371]
p53 Ser15 phosphorylation with PPM1D inhibitor [1]: increased the phosphorylation of p53 | p53 Ser15 phosphorylation with PPM1D inhibitor ([1]; listed as GKS2830371): increased p53 Ser15 phosphorylation | sensitivity of PPM1D-mutant cells versus control cells to single agent PPM1D inhibitor, cell viability ([2]; 72 hour, increasing doses): PPM1D mutant cells had an increased sensitivity; also recorded: increased sensitivity to single agent PPM1D inhibitor treatment when compared to control cells; also recorded: increased sensitivity to PPM1D inhibition with either compound in comparison to wild type control cells; also recorded: selectively kills PPM1D-mutant cells | sensitivity of PPM1D-mutant cells to cytarabine when combined with PPM1D inhibitor ([2]; pre-treated 1 hour with 3 μM GSK2830371, 72-hour cytarabine treatment): increased the sensitivity of Molm13 PPM1D-mutant cells to cytarabine; also recorded: reverses the chemotherapy resistance phenotype | sensitivity of PPM1D-mutant cells versus control cells to single agent PPM1D inhibitor, Annexin V staining [3]: increased sensitivity to single agent PPM1D inhibitor treatment when compared to control cells | selectivity for the PPM1D phosphatase (PPM1D phosphatase): highly selective for the PPM1D phosphatase | aberrant phosphorylation pattern of PPM1D-mutant cells in response to chemotherapy [4]: reversed the aberrant PPM1D mutant phosphorylation pattern; also recorded: complete reversal of the aberrant phosphorylation pattern | competitive advantage of PPM1D-mutant cells during cytarabine plus PPM1D inhibitor [5]: reversed the competitive advantage of PPM1D mutant cells; also recorded: could be reversed

From patent US12201620B2, “Compositions and methods for treating chemotherapy resistant cancer” (The Brigham And Women's Hospital, Inc., priority 2016, dated 2025)
